Results taken from patent US20230203043A1, “NOVEL IMIDAZOPYRAZINE DERIVATIVES” (Hoffmann-La Roche Inc., priority 2020, published 2023).
Where a name gives a salt, the structure may show the parent alone.

Tested on: Acinetobacter baumannii ATCC17961
Test: Antimicrobial susceptibility testing: 90% growth inhibitory concentration (IC90) determination in Iso-Sensitest broth, OD600 growth
Assay type: cell-based
Settings: Acinetobacter baumannii, ATCC17961, 16 h, read-out: A. baumannii ATCC 17961 IC90 (uM), strain ATCC 17961, OD600 growth over 16 h
Procedure, shortened: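 Each strain, at about 5×10^(5) CFU/ml, was incubated with twofold dilutions of compound at 35±2° C for 16 h, and IC90 was calculated from kinetic optical density measured at 600 nm during logarithmic growth.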

| SMILES | IC90 |
| --- | --- |
| CCc1cc(Nc2nccn3c(-c4cn(CC#N)nc4C(F)(F)F)cnc23)ccc1C(=O)N[C@H](C)C(=O)NC1CC(N)C1 (stereo partly drawn) [Example 790, N-[(1R)-2-[(3-aminocyclobutyl)amino]-1-methyl-2-oxo-ethyl]-4-[[3-[1-(cyanomethyl)-3-(trifluoromethyl)pyrazol-4-yl]imidazo[1,2-a]pyrazin-8-yl]amino]-2-ethyl-benzamide formate] | 1.64 µM |
| CCc1cc(Nc2nccn3c(-c4cn(CC#N)nc4C(F)(F)F)cnc23)ccc1C(=O)NCCCNC(=O)[C@H](C)N [Example 794, (S)-N-(3-(2-aminopropanamido)propyl)-4-((3-(1-(cyanomethyl)-3-(trifluoromethyl)-1H-pyrazol-4-yl)imidazo[1,2-a]pyrazin-8-yl)amino)-2-ethylbenzamide formate] | 2.2 µM |
| CCc1cc(Nc2nccn3c(-c4cn(CC#N)nc4C(F)(F)F)cnc23)ccc1C(=O)NCCCNC(=O)CN [Example 802, N-(3-(2-aminoacetamido)propyl)-4-((3-(1-(cyanomethyl)-3-(trifluoromethyl)-1H-pyrazol-4-yl)imidazo[1,2-a]pyrazin-8-yl)amino)-2-ethylbenzamide formate] | 3.54 µM |
| CCc1cc(Nc2nccn3c(-c4cn(CC#N)nc4C(F)(F)F)cnc23)ccc1C(=O)N[C@H](C)C(=O)N[C@@H]1CCNC1 [Example 803, 4-[[3-[1-(cyanomethyl)-3-(trifluoromethyl)pyrazol-4-yl]imidazo[1,2-a]pyrazin-8-yl]amino]-2-ethyl-N-[(1R)-1-methyl-2-oxo-2-[[(3R)-pyrrolidin-3-yl]amino]ethyl]benzamide formate] | 3.77 µM |
| NCCOCCNC(=O)c1ccc(Nc2nccn3c(-c4cn(CC(F)F)nc4C(F)(F)F)cnc23)cc1F [Example 809, N-(2-(2-aminoethoxy)ethyl)-4-((3-(1-(2,2-difluoroethyl)-3-(trifluoromethyl)-1H-pyrazol-4-yl)imidazo[1,2-a]pyrazin-8-yl)amino)-2-fluorobenzamidei hydrochloride] | 0.17 µM |

Same assay, conditions: Acinetobacter baumannii, ATCC17961, 16 h, strain ATCC 17961, OD600 growth over 16 h, read-out: A. baumannii ATCC 17961 IC90

| SMILES | IC90 |
| --- | --- |
| C#CCn1cc(-c2cnc3c(Nc4ccc(C(=O)N5CCN(C(=O)[C@@H]6C[C@@H](O)CN6)CC5)c(CC)c4)nccn23)c(C(F)F)n1 [Example 785, (4-(4-((3-(3-(difluoromethyl)-1-(prop-2-yn-1-yl)-1H-pyrazol-4-yl)imidazo[1,2-a]pyrazin-8-yl)amino)-2-ethylbenzoyl)piperazin-1-yl)((2S,4R)-4-hydroxypyrrolidin-2-yl)methanone] | 1.32 µM |
| CCc1cc(Nc2nccn3c(-c4cn(CC(F)F)nc4C(F)F)cnc23)ccc1C(=O)N1CCN(C(=O)[C@@H]2C[C@@H](O)CN2)CC1 [Example 786, (4-(4-((3-(1-(2,2-difluoroethyl)-3-(difluoromethyl)-1H-pyrazol-4-yl)imidazo[1,2-a]pyrazin-8-yl)amino)-2-ethylbenzoyl)piperazin-1-yl)((2S,4R)-4-hydroxypyrrolidin-2-yl)methanone] | 1.43 µM |
| CCc1cc(Nc2nccn3c(-c4cn(CCF)nc4C(F)F)cnc23)ccc1C(=O)N1CCN(C(=O)CN)CC1 [Example 788, 2-amino-1-(4-(4-((3-(3-(difluoromethyl)-1-(2-fluoroethyl)-1H-pyrazol-4-yl)imidazo[1,2-a]pyrazin-8-yl)amino)-2-ethylbenzoyl)piperazin-1-yl)ethan-1-one] | 1.6 µM |
| CCc1cc(Nc2nccn3c(-c4cn(CC(N)=O)nc4C(F)(F)F)cnc23)ccc1C(=O)NCCCNC(=O)[C@@H]1CCCN1 [Example 789, (S)-N-(3-(4-((3-(1-(2-amino-2-oxoethyl)-3-(trifluoromethyl)-1H-pyrazol-4-yl)imidazo [1,2-a]pyrazin-8-yl)amino)-2-ethylbenzamido)propyl)pyrrolidine-2-carboxamide] | 1.61 µM |
| CCc1cc(Nc2nccn3c(-c4cn(CCF)nc4C(F)F)cnc23)ccc1C(=O)N1CCN(C(=O)C2(O)CCNCC2)CC1 [Example 791, (4-(4-((3-(3-(difluoromethyl)-1-(2-fluoroethyl)-1H-pyrazol-4-yl)imidazo[1,2-a]pyrazin-8-yl)amino)-2-ethylbenzoyl)piperazin-1-yl)(4-hydroxypiperidin-4-yl)methanone] | 1.85 µM |
| CCc1cc(Nc2nccn3c(-c4cn(CC#N)nc4C(F)F)cnc23)ccc1C(=O)N1CCN(C(=O)C2CCNCC2)CC1 [Example 792, 2-(3-(difluoromethyl)-4-(8-((3-ethyl-4-(4-(piperidine-4-carbonyl)piperazine-1-carbonyl)phenyl)amino)imidazo[1,2-a]pyrazin-3-yl)-1H-pyrazol-1-yl)acetonitrile] | 1.92 µM |
| C#CCn1cc(-c2cnc3c(Nc4ccc(C(=O)N5CCN(C(=O)CN)CC5)c(CC)c4)nccn23)c(C(F)F)n1 [Example 793, 2-amino-1-(4-(4-((3-(3-(difluoromethyl)-1-(prop-2-yn-1-yl)-1H-pyrazol-4-yl)imidazo[1,2-a]pyrazin-8-yl)amino)-2-ethylbenzoyl)piperazin-1-yl)ethan-1-one] | 1.93 µM |
| CCc1cc(Nc2nccn3c(-c4cn(CCF)nc4C(F)F)cnc23)ccc1C(=O)N1CCN(C(=O)[C@@H]2C[C@@H](O)CN2)CC1 [Example 795, (4-(4-((3-(3-(difluoromethyl)-1-(2-fluoroethyl)-1H-pyrazol-4-yl)imidazo[1,2-a]pyrazin-8-yl)amino)-2-ethylbenzoyl)piperazin-1-yl)((2S,4R)-4-hydroxypyrrolidin-2-yl)methanone] | 2.23 µM |
| CCc1cc(Nc2nccn3c(-c4cn(CCF)nc4C(F)F)cnc23)ccc1C(=O)N1CCN(C(=O)[C@@H](C)N)CC1 [Example 796, (R)-2-amino-1-(4-(4-((3-(3-(difluoromethyl)-1-(2-fluoroethyl)-1H-pyrazol-4-yl)imidazo[1,2-a]pyrazin-8-yl)amino)-2-ethylbenzoyl)piperazin-1-yl)propan-1-one] | 2.25 µM |
| CCc1cc(Nc2nccn3c(-c4cn(CC#N)nc4C(F)F)cnc23)ccc1C(=O)N1CCN(C(=O)[C@H](N)C(C)C)CC1 [Example 797, 2-(4-(8-((4-(4-(D-valyl)piperazine-1-carbonyl)-3-ethylphenyl)amino)imidazo[1,2-a]pyrazin-3-yl)-3-(difluoromethyl)-1H-pyrazol-1-yl)acetonitrile] | 2.36 µM |
| CCc1cc(Nc2nccn3c(-c4cn(COC)nc4C(F)F)cnc23)ccc1C(=O)N1CCN(C(=O)C2CC(O)CN2)CC1 (stereo not drawn) [Example 798, (4-(4-((3-(3-(difluoromethyl)-1-(methoxymethyl)-1H-pyrazol-4-yl)imidazo[1,2-a]pyrazin-8-yl)amino)-2-ethylbenzoyl)piperazin-1-yl)(4-hydroxypyrrolidin-2-yl)methanone] | 2.36 µM |
| CCc1cc(Nc2nccn3c(-c4cn(CC#N)nc4C(F)F)cnc23)ccc1C(=O)N1CCN(C(=O)[C@H]2C[C@H](N)C2)CC1 [Example 800, 2-(4-(8-((4-(4-((1r,3r)-3-aminocyclobutane-1-carbonyl)piperazine-1-carbonyl)-3-ethylphenyl)amino)imidazo[1,2-a]pyrazin-3-yl)-3-(difluoromethyl)-1H-pyrazol-1-yl)acetonitrile] | 2.78 µM |
| CCc1cc(Nc2nccn3c(-c4cn(COC)nc4C(F)F)cnc23)ccc1C(=O)N1CCNCC1 [Example 801, (4-((3-(3-(difluoromethyl)-1-(methoxymethyl)-1H-pyrazol-4-yl)imidazo[1,2-a]pyrazin-8-yl)amino)-2-ethylphenyl) (piperazin-1-yl)methanone] | 3 µM |
| O=C(c1ccc(Nc2nccn3c(-c4c[nH]nc4C(F)(F)F)cnc23)cc1F)N1CCNCC1 [Example 805, (2-fluoro-4-((3-(3-(trifluoromethyl)-1H-pyrazol-4-yl)imidazo[1,2-α]pyrazin-8-yl)amino)phenyl)(piperazin-1-yl)methanone hydrochloride] | 0.88 µM |
| N[C@@H]1CC[C@H](C(=O)N2CCN(C(=O)c3ccc(Nc4nccn5c(-c6cn(CC(F)F)nc6C(F)(F)F)cnc45)cc3F)CC2)C1 [Example 806, (4-((1S,3R)-3-aminocyclopentane-1-carbonyl)piperazin-1-yl)(4-((3-(1-(2,2-difluoroethyl)-3-(trifluoromethyl)-1H-pyrazol-4-yl)imidazo[1,2-α]pyrazin-8-yl)amino)-2-fluorophenyl)methanone hydrochloride] | 0.25 µM |
| N#CCn1cc(-c2cnc3c(Nc4ccc(C(=O)N5CCN(C(=O)[C@H]6CC[C@@H](N)C6)CC5)c(F)c4)nccn23)c(C(F)(F)F)n1 [Example 807, 2-(4-(8-((4-(4-((1S,3R)-3-aminocyclo-pentane-1-carbonyl)piperazin-1-carbonyl)-3-fluorophenyl)amino)imidazo [1,2-a]pyrazin-3-yl)-3-(trifluoromethyl)-1H-pyrazol-1-yl)acetonitrile hydrochloride] | 0.31 µM |
| N[C@@H]1CC[C@H](C(=O)N2CCN(C(=O)c3ccc(Nc4nccn5c(-c6cn(CC7CC7)nc6C(F)(F)F)cnc45)cc3F)CC2)C1 [Example 808, (4-((1S,3R)-3-aminocyclo-pentane-1-carbonyl)piperazin-1-yl)(4-((3-(1-(cyclopropyl-methyl)-3-(trifluoromethyl)-1H-pyrazol-4-yl)imidazo[1,2-a]pyrazin-8-yl)amino)-2-fluorophenyl) methanone hydrochloride] | 0.26 µM |
| N#CCn1cc(-c2cnc3c(Nc4ccc(C(=O)NCCOCCN)c(F)c4)nccn23)c(C(F)(F)F)n1 [Example 810, N-(2-(2-aminoethoxy)ethyl)-4-((3-(1-(cyanomethyl)-3-(trifluoromethyl)-1H-pyrazol-4-yl)imrdazo[1,2-a]pyrazin-8-yl)amino)-2-fluorobenzamide hydrochloride] | 0.25 µM |

Same assay, conditions: strain ATCC 17961, OD600 growth over 16 h, read-out: A. baumannii ATCC 17961 IC90

| SMILES | IC90 |
| --- | --- |
| CCc1cc(Nc2nccn3c(-c4c[nH]nc4C(F)(F)F)cnc23)ccc1C(=O)NCCNC(=O)[C@H]1C[C@@H](N)C1 [Example 804, N-(2-((1s,3s)-3-aminocyclobutane-1-carboxamido)ethyl)-2-ethyl-4-((3-(3-(trifluoromethyl)-1H-pyrazol-4-yl)imidazo[1,2-a]pyrazin-8-yl)amino)benzamide formate] | 0.511 µM |
